PMC5218480 (PLoS ONE, 2017)

Test system: MV-4-11 cells
Assay: Gene expression microarray analysis (Affymetrix PrimeView) and GSEA
Assay type: cell-based, human
Parameters: RFU PODN (11730768_x_at) / Fold change /veh PODN (11730768_x_at) / RFU LINC00158 (11744669_a_at) / Fold change /veh LINC00158 (11744669_a_at) / RFU DUSP10 (11751237_a_at) / Fold change /veh DUSP10 (11751237_a_at) / RFU ID3 (11757404_x_at) / Fold change /veh ID3 (11757404_x_at) / RFU PLEKHG5 (11737974_s_at) / Fold change /veh PLEKHG5 (11737974_s_at) / RFU LRRC4B (11730491_at) / Fold change /veh LRRC4B (11730491_at) / RFU GIMAP4 (11747438_a_at) / Fold change /veh GIMAP4 (11747438_a_at) / RFU KRT8 (11758183_x_at) / Fold change /veh KRT8 (11758183_x_at) / RFU CNN1 (11734310_a_at) / Fold change /veh CNN1 (11734310_a_at) / RFU VPS37D (11726825_at) / Fold change /veh VPS37D (11726825_at) / RFU C10orf10 (11716522_x_at) / Fold change /veh C10orf10 (11716522_x_at) / RFU KIR2DL2 /// KIR2DL4 /// KIR2DL5A /// KIR2DL5B /// KIR2DS1 /// KIR2DS2 /// KIR2DS3 /// KIR2DS4 /// KIR3DL3 /// KIR3DL3 /// KIR3DS1 (11738374_at) / Fold change /veh KIR2DL2 /// KIR2DL4 /// KIR2DL5A /// KIR2DL5B /// KIR2DS1 /// KIR2DS2 /// KIR2DS3 /// KIR2DS4 /// KIR3DL3 /// KIR3DL3 /// KIR3DS1 (11738374_at) / RFU C1QL1 (11718748_at) / Fold change /veh C1QL1 (11718748_at) / RFU TMPRSS4 (11747572_a_at) / Fold change /veh TMPRSS4 (11747572_a_at) / RFU HAMP (11756126_x_at) / Fold change /veh HAMP (11756126_x_at) / RFU RNFT2 (11725882_a_at) / Fold change /veh RNFT2 (11725882_a_at) / RFU NR4A2 (11747474_a_at) / Fold change /veh NR4A2 (11747474_a_at) / RFU ABCC12 (11746883_a_at) / Fold change /veh ABCC12 (11746883_a_at) / RFU TMEM136 (11760407_x_at) / Fold change /veh TMEM136 (11760407_x_at) / RFU CLDN22 /// WWC2 (11732394_at) / Fold change /veh CLDN22 /// WWC2 (11732394_at) / RFU HLA-DPB1 (11760878_x_at) / Fold change /veh HLA-DPB1 (11760878_x_at) / RFU SPINT1 (11716480_a_at) / Fold change /veh SPINT1 (11716480_a_at) / RFU GAP43 (11754022_s_at) / Fold change /veh GAP43 (11754022_s_at) / RFU A4GNT (11735810_at) / Fold change /veh A4GNT (11735810_at) / RFU PRB3 (11715151_x_at) / Fold change /veh PRB3 (11715151_x_at) / RFU TUBB4B (11761932_at) / Fold change /veh TUBB4B (11761932_at) / RFU CAPN14 (11732068_a_at) / Fold change /veh CAPN14 (11732068_a_at) / RFU TMCC2 (11721928_a_at) / Fold change /veh TMCC2 (11721928_a_at) / RFU IRGQ (11745062_a_at) / Fold change /veh IRGQ (11745062_a_at) / RFU FAM174B (11720279_a_at) / Fold change /veh FAM174B (11720279_a_at) / RFU TMPRSS4 (11748680_a_at) / Fold change /veh TMPRSS4 (11748680_a_at) / RFU FAM212B (11763350_a_at) / Fold change /veh FAM212B (11763350_a_at) / RFU PLEKHG5 (11743358_a_at) / Fold change /veh PLEKHG5 (11743358_a_at) / RFU ZSCAN30 (11745921_a_at) / Fold change /veh ZSCAN30 (11745921_a_at) / RFU CMKLR1 (11741424_a_at) / Fold change /veh CMKLR1 (11741424_a_at) / RFU LOC101060620 /// MAPK8IP1 (11723275_at) / Fold change /veh LOC101060620 /// MAPK8IP1 (11723275_at) / RFU SPTSSB (11747773_x_at) / Fold change /veh SPTSSB (11747773_x_at) / RFU PRSS12 (11739890_at) / Fold change /veh PRSS12 (11739890_at) / RFU BIN1 (11741810_x_at) / Fold change /veh BIN1 (11741810_x_at) / RFU WNT11 (11732464_a_at) / Fold change /veh WNT11 (11732464_a_at) / RFU C10orf10 (11716521_a_at) / Fold change /veh C10orf10 (11716521_a_at) / RFU C5orf56 (11738089_at) / Fold change /veh C5orf56 (11738089_at) / RFU CYB561 (11721691_x_at) / Fold change /veh CYB561 (11721691_x_at) / RFU ANKRD19P (11752326_a_at) / Fold change /veh ANKRD19P (11752326_a_at) / RFU OR2T12 /// OR2T33 /// OR2T8 (11738714_s_at) / Fold change /veh OR2T12 /// OR2T33 /// OR2T8 (11738714_s_at) / RFU VCAN (11748164_a_at) / Fold change /veh VCAN (11748164_a_at) / RFU JSRP1 (11732532_at) / Fold change /veh JSRP1 (11732532_at) / RFU KRTAP10-11 (11738290_x_at) / Fold change /veh KRTAP10-11 (11738290_x_at) / RFU MYO3A (11730013_a_at) / Fold change /veh MYO3A (11730013_a_at) / RFU EBF3 (11725865_a_at) / Fold change /veh EBF3 (11725865_a_at) / RFU CAMK2N1 (11719241_x_at) / Fold change /veh CAMK2N1 (11719241_x_at) / RFU C5orf56 (11738088_a_at) / Fold change /veh C5orf56 (11738088_a_at) / RFU OLFML3 (11715873_a_at) / Fold change /veh OLFML3 (11715873_a_at) / RFU LOC100653217 /// NTM (11731650_a_at) / Fold change /veh LOC100653217 /// NTM (11731650_a_at) / RFU MAPK11 (11762145_a_at) / Fold change /veh MAPK11 (11762145_a_at) / RFU FIZ1 (11724087_x_at) / Fold change /veh FIZ1 (11724087_x_at) / RFU OASL (11726364_x_at) / Fold change /veh OASL (11726364_x_at) / RFU SOX15 (11748057_x_at) / Fold change /veh SOX15 (11748057_x_at) / RFU CD79A (11719716_a_at) / Fold change /veh CD79A (11719716_a_at) / RFU HIST1H1D (11736915_at) / Fold change /veh HIST1H1D (11736915_at) / RFU CASKIN2 (11723855_a_at) / Fold change /veh CASKIN2 (11723855_a_at) / RFU LOC730098 (11760151_x_at) / Fold change /veh LOC730098 (11760151_x_at) / RFU OR4N2 (11742367_at) / Fold change /veh OR4N2 (11742367_at) / RFU PRRT2 (11749266_a_at) / Fold change /veh PRRT2 (11749266_a_at) / RFU SNX32 (11753110_a_at) / Fold change /veh SNX32 (11753110_a_at) / RFU CDHR5 (11726645_a_at) / Fold change /veh CDHR5 (11726645_a_at) / RFU RCAN1 (11760418_a_at) / Fold change /veh RCAN1 (11760418_a_at) / RFU FAM167A (11723789_a_at) / Fold change /veh FAM167A (11723789_a_at) / RFU FAM26E (11764081_at) / Fold change /veh FAM26E (11764081_at) / RFU ISYNA1 (11749810_s_at) / Fold change /veh ISYNA1 (11749810_s_at) / RFU ACY1 (11761880_at) / Fold change /veh ACY1 (11761880_at) / RFU 11764098_at / Fold change /veh 11764098_at / RFU SAMD14 (11745864_x_at) / Fold change /veh SAMD14 (11745864_x_at) / RFU NPB (11741838_a_at) / Fold change /veh NPB (11741838_a_at) / RFU TMPRSS6 (11731388_a_at) / Fold change /veh TMPRSS6 (11731388_a_at) / RFU KRTAP10-2 (11738614_at) / Fold change /veh KRTAP10-2 (11738614_at) / RFU ARHGAP8 /// PRR5-ARHGAP8 (11727945_x_at) / Fold change /veh ARHGAP8 /// PRR5-ARHGAP8 (11727945_x_at) / RFU KRTAP5-7 /// NADSYN1 (11734609_at) / Fold change /veh KRTAP5-7 /// NADSYN1 (11734609_at) / RFU RASL12 (11751679_a_at) / Fold change /veh RASL12 (11751679_a_at) / RFU CDKN2B (11736163_a_at) / Fold change /veh CDKN2B (11736163_a_at) / RFU PRF1 (11729649_at) / Fold change /veh PRF1 (11729649_at) / RFU, ZNF638 /// ZNF638-IT1 / Fold change vs veh, ZNF638 /// ZNF638-IT1 / RFU, PANK3 / Fold change vs veh, PANK3 / RFU, SH3YL1 / Fold change vs veh, SH3YL1 / RFU, ZEB2 / Fold change vs veh, ZEB2 / RFU, NRIP1 / Fold change vs veh, NRIP1 / RFU, PTTG1IP / Fold change vs veh, PTTG1IP / RFU, CAPN2 / Fold change vs veh, CAPN2 / RFU, MED14 / Fold change vs veh, MED14 / RFU, SNORA58 / Fold change vs veh, SNORA58 / RFU, C1orf63 / Fold change vs veh, C1orf63 / RFU, LRRFIP1 / Fold change vs veh, LRRFIP1 / RFU, NDUFAF7 / Fold change vs veh, NDUFAF7 / RFU, SLC12A2 / Fold change vs veh, SLC12A2 / RFU, IBTK / Fold change vs veh, IBTK / RFU, ESF1 / Fold change vs veh, ESF1 / Fold change vs veh, TMEM50B / RFU, TAOK1 / Fold change vs veh, TAOK1 / RFU, ACBD3 / Fold change vs veh, ACBD3 / RFU, TMA16 / Fold change vs veh, TMA16 / RFU, RWDD3 / Fold change vs veh, RWDD3 / RFU, BCAT1 / Fold change vs veh, BCAT1 / RFU, EDEM3 / Fold change vs veh, EDEM3 / RFU, TMEM33 / Fold change vs veh, TMEM33 / RFU, WDR75 / Fold change vs veh, WDR75 / RFU, AHCTF1 / Fold change vs veh, AHCTF1 / RFU, TFRC / Fold change vs veh, TFRC / RFU, ZDHHC17 / Fold change vs veh, ZDHHC17 / RFU, NOM1 / Fold change vs veh, NOM1 / RFU, ARL8B / Fold change vs veh, ARL8B / RFU, ZBTB11 / Fold change vs veh, ZBTB11 / RFU, TAMM41 / Fold change vs veh, TAMM41 / RFU, KIAA1704 /// LOC100996395 / Fold change vs veh, KIAA1704 /// LOC100996395 / RFU, ING1 / Fold change vs veh, ING1 / RFU, TRMT61B / Fold change vs veh, TRMT61B / RFU, FUBP3 / Fold change vs veh, FUBP3 / RFU, TP53 / Fold change vs veh, TP53 / RFU, TNKS2 / Fold change vs veh, TNKS2 / RFU, ZFP14 / Fold change vs veh, ZFP14 / RFU, ACTR2 / Fold change vs veh, ACTR2 / RFU, PPP3R1 / Fold change vs veh, PPP3R1 / RFU, PIK3R1 / Fold change vs veh, PIK3R1 / RFU, HNRNPA1 / Fold change vs veh, HNRNPA1 / RFU, RNF170 / Fold change vs veh, RNF170 / RFU, ZNF28 / Fold change vs veh, ZNF28 / RFU, RNGTT / Fold change vs veh, RNGTT / RFU, OGT / Fold change vs veh, OGT / RFU, BRD1 / Fold change vs veh, BRD1 / RFU, MARS / Fold change vs veh, MARS / RFU, ZNF655 / Fold change vs veh, ZNF655 / RFU, FAHD1 / Fold change vs veh, FAHD1 / RFU, BDP1 / Fold change vs veh, BDP1 / RFU, LRRCC1 / Fold change vs veh, LRRCC1 / RFU, ARID1A / Fold change vs veh, ARID1A / RFU, ZNF146 / Fold change vs veh, ZNF146 / RFU, ZNF330 / Fold change vs veh, ZNF330 / RFU, GPN3 / Fold change vs veh, GPN3 / RFU, C9orf123 / Fold change vs veh, C9orf123 / RFU, N4BP2L2 / Fold change vs veh, N4BP2L2 / RFU, ARFIP1 / Fold change vs veh, ARFIP1 / RFU, FAM179B / Fold change vs veh, FAM179B / RFU, BCL10 / Fold change vs veh, BCL10 / RFU, UHRF1BP1L / Fold change vs veh, UHRF1BP1L / RFU, BET1 / Fold change vs veh, BET1 / RFU, CNOT2 / Fold change vs veh, CNOT2 / RFU, ZNF268 / Fold change vs veh, ZNF268 / Fold change vs veh, ZNF507 / RFU, DGCR2 / Fold change vs veh, DGCR2 / RFU, WDSUB1 / Fold change vs veh, WDSUB1 / Fold change vs veh, HSP90B1 /// MIR3652 / RFU, ADSS / Fold change vs veh, ADSS / RFU, GK / Fold change vs veh, GK / RFU, ZNF148 / Fold change vs veh, ZNF148 / RFU, TAF9 / Fold change vs veh, TAF9 / RFU, SLC1A5 / Fold change vs veh, SLC1A5 / RFU, SLMO2 / Fold change vs veh, SLMO2 / RFU, ABCC4 / Fold change vs veh, ABCC4 / RFU, LOC101060439 /// RAP1B / Fold change vs veh, LOC101060439 /// RAP1B / RFU, RFX7 / Fold change vs veh, RFX7 / RFU, GTPBP10 / Fold change vs veh, GTPBP10 / RFU, CNEP1R1 / Fold change vs veh, CNEP1R1 / RFU, BIVM-ERCC5 /// ERCC5 / Fold change vs veh, BIVM-ERCC5 /// ERCC5 / RFU, ILF3 / Fold change vs veh, ILF3 / RFU 11762660_at / Fold change /veh 11762660_at / RFU VCAN (11757783_s_at) / Fold change /veh VCAN (11757783_s_at) / RFU DDX43 (11728927_at) / Fold change /veh DDX43 (11728927_at) / RFU KRT8 (11758188_x_at) / Fold change /veh KRT8 (11758188_x_at) / RFU NKD1 (11759106_at) / Fold change /veh NKD1 (11759106_at) / RFU SRD5A1 (11742802_a_at) / Fold change /veh SRD5A1 (11742802_a_at) / RFU TPSAB1 /// TPSB2 (11721975_s_at) / Fold change /veh TPSAB1 /// TPSB2 (11721975_s_at) / RFU GSTM3 (11746129_a_at) / Fold change /veh GSTM3 (11746129_a_at) / RFU IL23R (11737362_x_at) / Fold change /veh IL23R (11737362_x_at) / RFU TMEM51 (11727254_a_at) / Fold change /veh TMEM51 (11727254_a_at) / RFU PIWIL2 (11732686_x_at) / Fold change /veh PIWIL2 (11732686_x_at) / RFU ORM1 (11744905_x_at) / Fold change /veh ORM1 (11744905_x_at) / RFU CCDC152 (11743942_at) / Fold change /veh CCDC152 (11743942_at) / RFU ECM1 (11717891_a_at) / Fold change /veh ECM1 (11717891_a_at) / RFU IL23R (11748794_a_at) / Fold change /veh IL23R (11748794_a_at) / RFU TNFAIP8L3 (11732012_x_at) / Fold change /veh TNFAIP8L3 (11732012_x_at) / RFU MBOAT4 (11741988_at) / Fold change /veh MBOAT4 (11741988_at) / RFU 11764193_at / Fold change /veh 11764193_at / RFU TMEM53 (11763286_at) / Fold change /veh TMEM53 (11763286_at) / RFU MAGEB2 (11727129_at) / Fold change /veh MAGEB2 (11727129_at) / RFU TMEM200A (11744735_a_at) / Fold change /veh TMEM200A (11744735_a_at) / RFU CCDC152 (11751479_a_at) / Fold change /veh CCDC152 (11751479_a_at) / RFU FAM211A (11726209_a_at) / Fold change /veh FAM211A (11726209_a_at) / RFU RGS16 (11746705_a_at) / Fold change /veh RGS16 (11746705_a_at) / RFU VCAN (11755009_s_at) / Fold change /veh VCAN (11755009_s_at) / RFU RHOB (11743442_s_at) / Fold change /veh RHOB (11743442_s_at) / RFU RGS16 (11720943_a_at) / Fold change /veh RGS16 (11720943_a_at) / RFU RGS16 (11720944_at) / Fold change /veh RGS16 (11720944_at) / RFU, VPS4B / Fold change vs veh, VPS4B / RFU, CREB1 / Fold change vs veh, CREB1 / RFU, DNAJC13 / Fold change vs veh, DNAJC13 / RFU, GNAQ / Fold change vs veh, GNAQ / RFU, CDK5R1 / Fold change vs veh, CDK5R1 / RFU, ZRANB3 / Fold change vs veh, ZRANB3 / RFU, CUL4A / Fold change vs veh, CUL4A / RFU, CCNY / Fold change vs veh, CCNY / RFU, UFL1 / Fold change vs veh, UFL1 / RFU, COG3 / Fold change vs veh, COG3 / RFU, DIAPH2 / Fold change vs veh, DIAPH2 / RFU, SKA2 / Fold change vs veh, SKA2 / RFU, AFF3 / Fold change vs veh, AFF3 / RFU, LMF1 / Fold change vs veh, LMF1 / RFU, IPO11 / Fold change vs veh, IPO11 / RFU, DFFB / Fold change vs veh, DFFB / RFU, FOXP1 / Fold change vs veh, FOXP1 / RFU, CARD8 / Fold change vs veh, CARD8 / RFU, STRN3 / Fold change vs veh, STRN3 / RFU, ADK / Fold change vs veh, ADK / RFU, RASSF2 / Fold change vs veh, RASSF2 / RFU, WIPF1 / Fold change vs veh, WIPF1 / RFU, LARP1B / Fold change vs veh, LARP1B / RFU, RASA1 / Fold change vs veh, RASA1 / RFU, RB1 / Fold change vs veh, RB1 / RFU, PPFIA1 / Fold change vs veh, PPFIA1 / RFU, MAT2A / Fold change vs veh, MAT2A / RFU, CCT5 / Fold change vs veh, CCT5 / RFU, WDR92 / Fold change vs veh, WDR92 / RFU, CUX1 / Fold change vs veh, CUX1 / RFU, TTC7A / Fold change vs veh, TTC7A / RFU, TMEM135 / Fold change vs veh, TMEM135 / RFU, DEPTOR / Fold change vs veh, DEPTOR / RFU, CPM / Fold change vs veh, CPM / RFU, DNAJB6 / Fold change vs veh, DNAJB6 / RFU, CACNA2D3 / Fold change vs veh, CACNA2D3 / RFU, DTX4 / Fold change vs veh, DTX4 / RFU, TFCP2 / Fold change vs veh, TFCP2 / RFU, GMCL1 /// GMCL1P1 / Fold change vs veh, GMCL1 /// GMCL1P1 / RFU, AEBP2 / Fold change vs veh, AEBP2 / RFU, SNHG1 /// SNORD22 /// SNORD25 /// SNORD26 /// SNORD27 /// SNORD28 /// SNORD29 /// SNORD31 / Fold change vs veh, SNHG1 /// SNORD22 /// SNORD25 /// SNORD26 /// SNORD27 /// SNORD28 /// SNORD29 /// SNORD31 / Fold change (Aza/veh), C12orf56 (ProbeSet 11735607_a_at) / Fold change (ACY-1035/veh), C12orf56 (ProbeSet 11735607_a_at) / Fold change (Aza/veh), FGFR1OP (ProbeSet 11751329_s_at) / Fold change (ACY-1035/veh), FGFR1OP (ProbeSet 11751329_s_at) / Fold change (Aza/veh), VPS36 (ProbeSet 11739960_a_at) / Fold change (ACY-1035/veh), VPS36 (ProbeSet 11739960_a_at) / RFU SYPL1 (11715823_x_at) / Fold change /veh SYPL1 (11715823_x_at) / RFU IGFBP7 (11715501_s_at) / Fold change /veh IGFBP7 (11715501_s_at) / RFU REEP3 (11722064_at) / Fold change /veh REEP3 (11722064_at) / RFU IGLL1 (11728026_x_at) / Fold change /veh IGLL1 (11728026_x_at): dose or concentration left out as unconfirmed
Details: ProbeSet 11748335_a_at; LIST B

## Nc1ncn([C@@H]2O[C@H](CO)[C@@H](O)[C@H]2O)c(=O)n1 [azacitidine]
  RFU, SLMO2: 144.00 RFU
